Results published in the supplement of paper PMC10307832.

Legend:
Assay in all cases: relative viability (nuclei count vs DMSO), 5 days (fraction); higher = more cells survive
[1] = compound: CCC1=CN=CN=C1N2CCN(CC2)CC3=NC4=C(N3)C=C(C=C4)C(F)(F)F + Cc1nc(NC(=O)N2CCC[C@H]2C(N)=O)sc1-c1ccnc(C(C)(C)C(F)(F)F)c1 [Alpelisib] (partner 2 µM)
Method in brief: (§1)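 Medians of duplicate plates are given as relative viability. That measure is the nuclei count in treated wells divided by the count in vehicle wells. Counts were taken on 4× images of lung cancer cell lines in 1536-well plates, 5 days after pin-tool dosing the day after seeding with one drug alone or a fixed anchor-drug dose plus five library-drug doses (not always all listed) in √10 steps.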

[2] = compound: CCn1c(-c2nonc2N)nc2cnc(Oc3cccc(NC(=O)c4ccc(OCCN5CCOCC5)cc4)c3)cc21 + Nc1nc2[nH]cc(CCc3ccc(C(=O)N[C@@H](CCC(=O)O)C(=O)O)cc3)c2c(=O)[nH]1 [Pemetrexed] (partner 0.2 µM)
Method in brief: as §1

[3] = compound: CCn1c(-c2nonc2N)nc2cnc(Oc3cccc(NC(=O)c4ccc(OCCN5CCOCC5)cc4)c3)cc21 + COc1cccc2cc(-c3nc([C@H]4CC[C@H](C(=O)O)CC4)n4ncnc(N)c34)[nH]c12 [OSI-027] (partner 0.5 µM)
Method in brief: as §1

[4] = compound: CCC1=CN=CN=C1N2CCN(CC2)CC3=NC4=C(N3)C=C(C=C4)C(F)(F)F + Cc1nc(Nc2ncc(C(=O)Nc3c(C)cccc3Cl)s2)cc(N2CCN(CCO)CC2)n1 [Dasatinib] (partner 0.075 µM)
Method in brief: as §1

Cell Line	relative viability ([1]; first compound 0.04 µM)	relative viability ([1]; first compound 0.1265 µM)	relative viability ([1]; first compound 0.4 µM)	relative viability ([1]; first compound 1.265 µM)	relative viability ([1]; first compound 4 µM)	relative viability ([2]; first compound 0.04 µM)	relative viability ([2]; first compound 0.1265 µM)	relative viability ([2]; first compound 0.4 µM)	relative viability ([2]; first compound 1.265 µM)	relative viability ([2]; first compound 4 µM)	relative viability ([3]; first compound 0.04 µM)	relative viability ([3]; first compound 0.1265 µM)	relative viability ([3]; first compound 0.4 µM)	relative viability ([3]; first compound 1.265 µM)	relative viability ([3]; first compound 4 µM)	relative viability ([4]; first compound 0.04 µM)	relative viability ([4]; first compound 0.1265 µM)	relative viability ([4]; first compound 0.4 µM)	relative viability ([4]; first compound 1.265 µM)	relative viability ([4]; first compound 4 µM)
NCI-H1915	1.1	1.03	1.06	0.957	1.03	0.497	0.494	0.448	0.183	0.174	0.695	0.626	0.476	0.259	0.252	0.276	0.318	0.283	0.298	0.319
NCI-H2009	1.24	1.12	1.12	1.19	1.14	0.916	0.817	0.757	0.607	0.492	0.753	0.597	0.39	0.361	0.322	0.269	0.309	0.298	0.249	0.275
ChaGo-K-1						0.263	0.25	0.238	0.235	0.239	0.679	0.521	0.313	0.393	0.307	0.654	0.635	0.555	0.615	0.492
COR-L 105	1.07	0.847	0.966	0.893	0.894	1.13	0.965	1.09	0.615	0.507	0.976	0.654	0.361	0.374	0.26	0.279	0.316	0.362	0.399	0.338
NCI-H2170	0.841	0.753	0.762	0.713	0.685	0.263	0.263	0.272	0.223	0.244	0.708	0.703	0.641	0.555	0.555	0.547	0.631	0.487	0.505	0.475
A549	0.763	0.657	0.849	0.698	0.831															
NCI-H1975	0.641	0.633	0.605	0.61	0.527	0.29	0.269	0.23	0.188	0.178	0.616	0.465	0.322	0.196	0.208	0.402	0.435	0.385	0.325	0.293
Calu-6	0.891	0.923	0.86	0.822	0.86															
NCI-H1648						1.01	1.13	0.828	0.964	0.78	0.258	0.393	0.276	0.314	0.327					
NCI-H1623											0.513	0.488	0.351	0.43	0.542	0.455	0.501	0.548	0.564	0.562
NCI-H322M	0.741	0.892	0.749	0.705	0.748	0.714	0.716	0.617	0.47	0.559	0.826	0.667	0.416	0.562	0.611	0.261	0.257	0.258	0.239	0.249
